One assay has as its system RPMI-8226 cells. Conditions: 2 nM salmeterol for 5 hours, soft agar, three weeks; 740 colonies without drugs. As for the experimental part:
The effect of BAR agonists on cells grown in soft agar was also determined. This approach allows the measurement of long term cell viability after single agent or combination treatment. […] Cells were washed and plated in soft agar. After three weeks colonies were counted to determine cell viability.

A further assay deals with MM.1S cells. The experiment in a line: Annexin V / propidium iodide apoptosis assay, MM.1S. In kind it is cell-based, human. Conditions: 0.3 nM salmeterol, 72 hours (FIG. 2). As for the experimental part:
Effects on cell viability were determined by measuring the percent of cells that were annexin V positive (an early marker for apoptosis) and by measuring the percent of cells propidium iodide (PI) positive, an indicator that cellular membranes are compromised and a marker of cell death.

Each structure is given as a SMILES string.

On to `OCc1cc(C(O)CNCCCCCCOCCCCc2ccccc2)ccc1O` (centres unmarked) [salmeterol], for which the “colony number per 10,000 cells plated” value with RPMI-8226 cells came out at 360 colonies. Also, the “induction of MM.1S cell apoptosis” value with MM.1S cells is approximately 40%.

The record behind these values is patent publication US20100009934A1, “BETA ADRENERGIC RECEPTOR AGONISTS FOR THE TREATMENT OF B-CELL PROLIFERATIVE DISORDERS” (CombinatoRx, Incorporated, priority 2008, published 2010).
